pEC50: −log10 of the molar value.
Biological target: T1, alpha2A receptor (Homo sapiens, UniProt P08913)
T1 sequence (P08913 1-465): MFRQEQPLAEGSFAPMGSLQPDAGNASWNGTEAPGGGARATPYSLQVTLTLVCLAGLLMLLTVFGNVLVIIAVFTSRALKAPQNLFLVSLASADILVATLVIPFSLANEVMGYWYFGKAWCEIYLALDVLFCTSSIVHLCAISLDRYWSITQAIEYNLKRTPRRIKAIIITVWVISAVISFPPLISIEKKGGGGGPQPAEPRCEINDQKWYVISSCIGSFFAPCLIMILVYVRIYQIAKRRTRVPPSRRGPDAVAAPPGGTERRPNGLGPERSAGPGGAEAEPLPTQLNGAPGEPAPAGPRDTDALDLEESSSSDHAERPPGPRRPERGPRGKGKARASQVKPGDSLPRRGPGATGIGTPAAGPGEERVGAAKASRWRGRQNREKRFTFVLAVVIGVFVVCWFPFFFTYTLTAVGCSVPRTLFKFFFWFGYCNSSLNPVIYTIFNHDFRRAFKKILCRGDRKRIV
Experiment: Alpha2A agonistic activity in vitro
Format: cell-based
Conditions: Alpha2A Agonism pEC50, in vitro

| SMILES | pEC50 |
| --- | --- |
| CCC1Cc2c(C)cccc2C(C2=NCCN2)O1 (stereo not drawn) [Example 27, 2-(3-Ethyl-5-methylisochroman-1-yl)-4,5-dihydro-1H-imidazole] | 7.60 |
| CC1Cc2c(Br)cccc2C(C2=NCCN2)O1 (stereo not drawn) [Example 29, 2-(5-Bromo-3-methylisochroman-1-yl)-4,5-dihydro-1H-imidazole] | 8.70 |
| C[C@@H]1Cc2c(Br)cccc2C(C2=NCCN2)O1 (stereo partly drawn) [Example 32, 2-((3R)-5-bromo-3-methylisochroman-1-yl)-4,5-dihydro-1H-imidazole] | 9.00 |
| C[C@@H]1Cc2c(Cl)cccc2C(C2=NCCN2)O1 (stereo partly drawn) [Example 33, 2-((3R)-5-chloro-3-methylisochroman-1-yl)-4,5-dihydro-1H-imidazole] | 8.80 |
| C[C@H]1Cc2c(Cl)cccc2C(C2=NCCN2)O1 (stereo partly drawn) [Example 34, 2-((3S)-5-chloro-3-methylisochroman-1-yl)-4,5-dihydro-1H-imidazole] | 7.20 |
| C[C@H]1Cc2c(Br)cccc2C(C2=NCCN2)O1 (stereo partly drawn) [Example 35, 2-((3S)-5-bromo-3-methylisochroman-1-yl)-4,5-dihydro-1H-imidazole] | 7.80 |
| Cc1cccc2c1C[C@@H](C)OC2C1=NCCN1 (stereo partly drawn) [Example 36, 2-((3R)-3,5-dimethylisochroman-1-yl)-4,5-dihydro-1H-imidazole] | 8.80 |
| COc1cccc2c1CC(C)OC2C1=NCCN1 (stereo not drawn) [Example 38, 2-(5-Methoxy-3-methylisochroman-1-yl)-4,5-dihydro-1H-imidazole] | 7.90 |
| CCc1cccc2c1CC(C)OC2C1=NCCN1 (stereo not drawn) [Example 39, 2-(5-Ethyl-3-methylisochroman-1-yl)-4,5-dihydro-1H-imidazole] | 7.80 |
| Fc1cccc2c1CCOC2C1=NCCN1 (stereo not drawn) [Example 42, 2-(5-Fluoroisochroman-1-yl)-4,5-dihydro-1H-imidazole] | 7.40 |
| CCC1Cc2c(Br)cccc2C(C2=NCCN2)O1 (stereo not drawn) [Example 43, 2-(5-Bromo-3-ethylisochroman-1-yl)-4,5-dihydro-1H-imidazole] | 7.30 |
| COc1cccc2c1C[C@@H](C)OC2C1=NCCN1 (stereo partly drawn) [Example 44, 2-((3R)-5-methoxy-3-methylisochroman-1-yl)-4,5-dihydro-1H-imidazole] | 8.10 |
| CCc1cccc2c1C[C@@H](C)OC2C1=NCCN1 (stereo partly drawn) [Example 45, 2-((3R)-5-ethyl-3-methylisochroman-1-yl)-4,5-dihydro-1H-imidazole] | 8.20 |
| CCC1Cc2c(OC)cccc2C(C2=NCCN2)O1 (stereo not drawn) [Example 46, 2-(3-Ethyl-5-methoxyisochroman-1-yl)-4,5-dihydro-1H-imidazole] | 7.10 |
| CC[C@@H]1Cc2c(C)cccc2C(C2=NCCN2)O1 (stereo partly drawn) [Example 48, 2-((3R)-3-ethyl-5-methylisochroman-1-yl)-4,5-dihydro-1H-imidazole] | 7.60 |
| C[C@@H]1Cc2c(F)cccc2C(C2=NCCN2)O1 (stereo partly drawn) [Example 50, 2-((3R)-5-fluoro-3-methylisochroman-1-yl)-4,5-dihydro-1H-imidazole] | 7.60 |
| Cc1cc(C)c2c(c1)C(C1=NCCN1)OCC2 (stereo not drawn) [Example 59, 2-(5,7-Dimethylisochroman-1-yl)-4,5-dihydro-1H-imidazole] | 7.40 |
| Cc1cccc2c1CCSC2C1=NCCN1 (stereo not drawn) [Example 64, 2-(5-Methylisothiochroman-1-yl)-4,5-dihydro-1H-imidazole] | 7.10 |
| Brc1cccc2c1CCSC2C1=NCCN1 (stereo not drawn) [Example 65, 2-(5-Bromoisothiochroman-1-yl)-4,5-dihydro-1H-imidazole] | 7.10 |

Same assay, conditions: in vitro

| SMILES | Alpha2A Intrinsic Activity |
| --- | --- |
| CCC1Cc2c(C)cccc2C(C2=NCCN2)O1 (stereo not drawn) [Example 27, 2-(3-Ethyl-5-methylisochroman-1-yl)-4,5-dihydro-1H-imidazole] | 0.69 |
| CC1Cc2c(Cl)cccc2C(C)(C2=NCCN2)O1 (stereo not drawn) [Example 28, 2-(5-Chloro-1,3-dimethylisochroman-1-yl)-4,5-dihydro-1H-imidazole] | 0.64 |
| CC1Cc2c(Br)cccc2C(C2=NCCN2)O1 (stereo not drawn) [Example 29, 2-(5-Bromo-3-methylisochroman-1-yl)-4,5-dihydro-1H-imidazole] | 0.99 |
| Cc1cccc2c1CC(C)OC2(C)C1=NCCN1 (stereo not drawn) [Example 30, 2-(1,3,5-Trimethylisochroman-1-yl)-4,5-dihydro-1H-imidazole] | 0.60 |
| C[C@@H]1Cc2c(Br)cccc2C(C2=NCCN2)O1 (stereo partly drawn) [Example 32, 2-((3R)-5-bromo-3-methylisochroman-1-yl)-4,5-dihydro-1H-imidazole] | 0.92 |
| C[C@@H]1Cc2c(Cl)cccc2C(C2=NCCN2)O1 (stereo partly drawn) [Example 33, 2-((3R)-5-chloro-3-methylisochroman-1-yl)-4,5-dihydro-1H-imidazole] | 0.93 |
| C[C@H]1Cc2c(Cl)cccc2C(C2=NCCN2)O1 (stereo partly drawn) [Example 34, 2-((3S)-5-chloro-3-methylisochroman-1-yl)-4,5-dihydro-1H-imidazole] | 0.78 |
| C[C@H]1Cc2c(Br)cccc2C(C2=NCCN2)O1 (stereo partly drawn) [Example 35, 2-((3S)-5-bromo-3-methylisochroman-1-yl)-4,5-dihydro-1H-imidazole] | 0.80 |
| Cc1cccc2c1C[C@@H](C)OC2C1=NCCN1 (stereo partly drawn) [Example 36, 2-((3R)-3,5-dimethylisochroman-1-yl)-4,5-dihydro-1H-imidazole] | 0.90 |
| COc1cccc2c1CC(C)OC2C1=NCCN1 (stereo not drawn) [Example 38, 2-(5-Methoxy-3-methylisochroman-1-yl)-4,5-dihydro-1H-imidazole] | 0.92 |
| CCc1cccc2c1CC(C)OC2C1=NCCN1 (stereo not drawn) [Example 39, 2-(5-Ethyl-3-methylisochroman-1-yl)-4,5-dihydro-1H-imidazole] | 0.67 |
| Fc1cccc2c1CCOC2C1=NCCN1 (stereo not drawn) [Example 42, 2-(5-Fluoroisochroman-1-yl)-4,5-dihydro-1H-imidazole] | 0.62 |
| CCC1Cc2c(Br)cccc2C(C2=NCCN2)O1 (stereo not drawn) [Example 43, 2-(5-Bromo-3-ethylisochroman-1-yl)-4,5-dihydro-1H-imidazole] | 0.58 |
| COc1cccc2c1C[C@@H](C)OC2C1=NCCN1 (stereo partly drawn) [Example 44, 2-((3R)-5-methoxy-3-methylisochroman-1-yl)-4,5-dihydro-1H-imidazole] | 0.83 |
| CCc1cccc2c1C[C@@H](C)OC2C1=NCCN1 (stereo partly drawn) [Example 45, 2-((3R)-5-ethyl-3-methylisochroman-1-yl)-4,5-dihydro-1H-imidazole] | 0.73 |
| CCC1Cc2c(OC)cccc2C(C2=NCCN2)O1 (stereo not drawn) [Example 46, 2-(3-Ethyl-5-methoxyisochroman-1-yl)-4,5-dihydro-1H-imidazole] | 0.45 |
| CC[C@@H]1Cc2c(C)cccc2C(C2=NCCN2)O1 (stereo partly drawn) [Example 48, 2-((3R)-3-ethyl-5-methylisochroman-1-yl)-4,5-dihydro-1H-imidazole] | 0.58 |
| C[C@@H]1Cc2c(F)cccc2C(C2=NCCN2)O1 (stereo partly drawn) [Example 50, 2-((3R)-5-fluoro-3-methylisochroman-1-yl)-4,5-dihydro-1H-imidazole] | 0.90 |
| Cc1cc(C)c2c(c1)C(C1=NCCN1)OCC2 (stereo not drawn) [Example 59, 2-(5,7-Dimethylisochroman-1-yl)-4,5-dihydro-1H-imidazole] | 0.81 |
| Cc1cccc2c1CCSC2C1=NCCN1 (stereo not drawn) [Example 64, 2-(5-Methylisothiochroman-1-yl)-4,5-dihydro-1H-imidazole] | 0.59 |
| Brc1cccc2c1CCSC2C1=NCCN1 (stereo not drawn) [Example 65, 2-(5-Bromoisothiochroman-1-yl)-4,5-dihydro-1H-imidazole] | 0.56 |

Same assay, conditions: in vitro; read-out: Alpha2A Agonism pEC50 (converted)

| SMILES | EC50 |
| --- | --- |
| CC1Cc2c(Cl)cccc2C(C)(C2=NCCN2)O1 (stereo not drawn) [Example 28, 2-(5-Chloro-1,3-dimethylisochroman-1-yl)-4,5-dihydro-1H-imidazole] | 1000 nM |
| Cc1cccc2c1CC(C)OC2(C)C1=NCCN1 (stereo not drawn) [Example 30, 2-(1,3,5-Trimethylisochroman-1-yl)-4,5-dihydro-1H-imidazole] | 794 nM |
